± gives the standard deviation of the averaged measurements.
Legend:
[1] = test system: Homo sapiens (human subject panel, olfactory perception); assay: perceived odor pleasantness rating (rating 0-100); higher = more pleasant
How it was run: (§1)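 For each molecule, 1 mL diluted in paraffin oil was sniffed at high and low concentrations by 55 healthy human subjects aged 18–50, with the six lowest performers excluded. Presentation order was randomized over ten visits of 100 stimuli. Subjects who reported smelling a stimulus moved a computerized slider from its starting position of 50, and positions were converted to a 0–100 scale. The familiarity, intensity and pleasantness ratings are averaged across subjects.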

[2] = test system: Homo sapiens (human subject panel, olfactory perception); assay: perceived odor intensity rating (rating 0-100); higher = stronger perceived smell
How it was run: as §1

[3] = test system: Homo sapiens (human subject panel, olfactory perception); assay: perceived odor familiarity rating (rating 0-100); higher = more familiar
How it was run: as §1

[4] = odor dilution in paraffin oil: 1/10
[5] = odor dilution in paraffin oil: 1/1,000
[6] = odor dilution in paraffin oil: 1/100,000
[7] = odor dilution in paraffin oil: 1/10,000,000

Row | SMILES | perceived odor pleasantness rating [1, 4] | perceived odor pleasantness rating [1, 5] | perceived odor intensity rating [2, 4] | perceived odor intensity rating [2, 5] | perceived odor familiarity rating [3, 4] | perceived odor familiarity rating [3, 5] | perceived odor pleasantness rating [1, 6] | perceived odor intensity rating [2, 6] | perceived odor familiarity rating [3, 6] | perceived odor pleasantness rating [1, 7] | perceived odor intensity rating [2, 7] | perceived odor familiarity rating [3, 7]
1 | CCCCCCOC(=O)c1ccccc1 [Hexyl benzoate] | 34.7 ± 25 | 37.4 ± 27 | 69.5 ± 25 | 40.7 ± 33 | 47.5 ± 28 | 37.8 ± 28 | – | – | – | – | – | –
2 | CCCCCCOC(=O)CCCCC [Hexyl hexanoate] | 43.8 ± 25 | 48.2 ± 23 | 67.7 ± 26 | 34.4 ± 26 | 39 ± 26 | 38 ± 29 | – | – | – | – | – | –
3 | CCCCCCCC(=O)OCCCCCC [Hexyl octanoate] | – | 52.4 ± 18 | – | 23 ± 19 | – | 42.9 ± 32 | 46.4 ± 22 | 16.5 ± 24 | 28 ± 23 | – | – | –
4 | CCCCCCOC(=O)CC [Hexyl propionate] | – | 52.1 ± 24 | – | 59 ± 32 | – | 43.1 ± 28 | 38.5 ± 22 | 27.6 ± 32 | 40.8 ± 33 | – | – | –
5 | II [Iodine] | 13.7 ± 22 | 51.6 ± 30 | 77.7 ± 29 | 32.4 ± 30 | 48.4 ± 33 | 41 ± 37 | – | – | – | – | – | –
6 | IC(I)I [Iodoform] | 30.7 ± 26 | 36.4 ± 22 | 84.4 ± 16 | 68.4 ± 23 | 52.6 ± 33 | 51.2 ± 29 | – | – | – | – | – | –
7 | CCCC(=O)OCCC(C)C [Isoamyl butyrate] | – | 52.8 ± 28 | – | 63.4 ± 26 | – | 51.4 ± 31 | 45.5 ± 23 | 20.4 ± 28 | 36.4 ± 32 | – | – | –
8 | CC(C)CCOC(=O)/C=C/c1ccccc1 [Isoamyl cinnamate] | – | 38.8 ± 23 | – | 18.9 ± 23 | – | 25.2 ± 25 | 56.7 ± 24 | 22.5 ± 26 | 40.7 ± 32 | – | – | –
9 | CCCCCCCCCCCC(=O)OCCC(C)C [Isoamyl laurate] | 33.7 ± 25 | 47.7 ± 22 | 59.9 ± 29 | 20.3 ± 22 | 41.5 ± 29 | 31.8 ± 22 | – | – | – | – | – | –
10 | CCCCCCCC(=O)OCCC(C)C [Isoamyl octanoate] | 50 ± 25 | 57.6 ± 22 | 62.8 ± 29 | 24.3 ± 28 | 45.2 ± 30 | 45.4 ± 32 | – | – | – | – | – | –
11 | CC(C)CCN [Isoamylamine] | – | – | – | – | – | – | 40.2 ± 25 | 37.5 ± 30 | 37.5 ± 29 | 46.1 ± 22 | 15.1 ± 27 | 32.1 ± 27
12 | CC(C)COC(=O)c1ccccc1 [Isobutyl benzoate] | 47.6 ± 29 | 49 ± 26 | 78.7 ± 20 | 36.7 ± 31 | 53.3 ± 30 | 41.1 ± 29 | – | – | – | – | – | –
13 | CC(C)COC(=O)/C=C/c1ccccc1 [Isobutyl cinnamate] | 41.3 ± 30 | 54 ± 27 | 70.4 ± 24 | 49.3 ± 33 | 45.6 ± 31 | 38.6 ± 30 | – | – | – | – | – | –
14 | CC(C)COC(=O)Cc1ccccc1 [Isobutyl phenylacetate] | – | 45.5 ± 30 | – | 52 ± 29 | – | 49 ± 31 | 54.3 ± 24 | 15.7 ± 21 | 33.7 ± 29 | – | – | –
15 | CCC(=O)OCC(C)C [Isobutyl propionate] | – | 58.6 ± 23 | – | 57.3 ± 30 | – | 48 ± 27 | 47.8 ± 23 | 31.5 ± 28 | 41 ± 28 | – | – | –
16 | CC(C)C=O [Isobutyraldehyde] | – | 24.3 ± 22 | – | 77.5 ± 24 | – | 43.1 ± 29 | 27.3 ± 19 | 61.6 ± 28 | 39 ± 31 | – | – | –
17 | CC(C)C(=O)O [Isobutyric acid] | – | – | – | – | – | – | 25 ± 20 | 56.8 ± 30 | 43.5 ± 31 | 49 ± 27 | 22.6 ± 28 | 39.6 ± 26
18 | C/C=C\c1ccc(O)c(OC)c1 [Isoeugenol] | – | 68.4 ± 26 | – | 81.6 ± 15 | – | 71.4 ± 27 | 66.9 ± 24 | 64.5 ± 23 | 60 ± 29 | – | – | –
19 | CC=Cc1ccc(OC(=O)Cc2ccccc2)c(OC)c1 [Isoeugenyl phenylacetate] | – | 56.2 ± 32 | – | 78.7 ± 18 | – | 68 ± 29 | 59.7 ± 26 | 42.4 ± 32 | 55.8 ± 30 | – | – | –
20 | CC1=CC(=O)CC(C)(C)C1 [Isophorone] | – | 51.5 ± 25 | – | 60.1 ± 25 | – | 50.2 ± 35 | 54.3 ± 24 | 21.6 ± 24 | 40.4 ± 28 | – | – | –
21 | C=C(C)OC(C)=O [Isopropenyl acetate] | – | – | – | – | – | – | 46.9 ± 24 | 27.1 ± 25 | 31.1 ± 27 | 45.5 ± 21 | 18.8 ± 26 | 38.2 ± 31
22 | CC(C)O [Isopropyl alcohol] | – | 41.1 ± 24 | – | 11.8 ± 18 | – | 29.4 ± 29 | 38.3 ± 18 | 21.9 ± 23 | 36.5 ± 28 | – | – | –
23 | CCCCCCCCCCCCCC(=O)OC(C)C [Isopropyl myristate] | 45.4 ± 21 | 50.6 ± 23 | 26 ± 27 | 20.3 ± 25 | 24.4 ± 24 | 35.2 ± 26 | – | – | – | – | – | –
24 | C/C=C/c1ccc2c(c1)OCO2 [Isosafrole] | – | 59.6 ± 24 | – | 44.7 ± 30 | – | 56.4 ± 30 | 54.6 ± 18 | 14.4 ± 15 | 29 ± 28 | – | – | –
25 | C[C@H](N)C(=O)O [L-Alanine] | 55.7 ± 28 | 45.9 ± 20 | 31.9 ± 30 | 14.7 ± 22 | 40.9 ± 32 | 23.8 ± 22 | – | – | – | – | – | –
26 | N=C(N)NCCC[C@H](N)C(=O)O [L-Arginine] | 47.9 ± 24 | 44.6 ± 19 | 19.2 ± 25 | 20.4 ± 22 | 29.4 ± 33 | 30.3 ± 24 | – | – | – | – | – | –
27 | N[C@@H](CS)C(=O)O [L-Cysteine] | 12.8 ± 20 | 39 ± 23 | 71.7 ± 30 | 33.4 ± 30 | 46.2 ± 36 | 33.8 ± 28 | – | – | – | – | – | –
